Laboratory results: PubChem BioAssay AID493102 (Broad Institute, 2011)

test system: SK-MEL-5 TRPM1-promoter luciferase reporter, 24 h; test: reducers of TRPM1 reporter luminescence, concentration series – cell-based, SK-MEL-5, cherry-picked, set 4, MITF inhibitor project, dose response (AID 493102);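 also: actives lower the luciferase signal so the potency reflects inhibition of reporter expression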

| SMILES | AC50 [µM] |
| --- | --- |
| CN=c1scc(-c2ccccc2F)n1/N=C/c1ccc[nH]1 | 0.019 |
| O=C(/C=C/NNC(=O)c1ccccc1)c1ccc([N+](=O)[O-])cc1 | 9.19 |
| Cn1nnnc1Sc1ncnc2scc(-c3cccs3)c12 | 7 |
| COc1ccc(CCn2c(=S)[nH]c3cc(C(=O)NCc4ccco4)ccc3c2=O)cc1OC | 17.7 |
| CC(C)(C)C(=O)Cn1ncc(Cl)c(Cl)c1=O | 10.4 |
| Cc1ccc(C(O)(c2ccc(C)c(C)c2)C2CN3CCC2CC3)cc1C (stereo not drawn) | 10.1 |
| CN(C)CCNC(=O)/C(=C/c1ccc(-c2ccc(Cl)cc2Cl)o1)NC(=O)c1ccccc1 | 4.97 |
| O=S(=O)(c1ccc(F)cc1)c1snnc1-c1ccccc1 | 15.1 |
| COc1cccc(N2CCN(C(=O)c3ccc(CS(=O)c4ccccc4Cl)o3)CC2)c1 (stereo not drawn) | 0.894 |
| NCCN1C(=O)S/C(=C\c2ccc3c(c2)OCO3)C1=O | 22.3 |
| COc1cccc(C(=O)Oc2c(CN3CCOCC3)cc(Cl)c3cccnc23)c1 | 9.89 |
| C=CCNC1=C(Cl)C(=O)c2ccccc2C1=O | 4.06 |
| COC(=O)C1=C(C)N(Cc2ccccc2)C(=NCC(C)C)N[C@H]1c1cccc(C(F)(F)F)c1 | 15 |
| Cc1ccccc1-n1ncc2c([N+](=O)[O-])cc([N+](=O)[O-])cc21 | 8.7 |
| CC(C)(C)C(=O)/C(=C/c1ccncc1)n1cncn1 | 6.63 |
| O=C(Nc1ccc(F)cc1)c1nc(S(=O)(=O)Cc2ccccc2)ncc1Cl | 9.45 |
| COc1ccc(C(NC(C)=O)c2ccc3cccnc3c2O)c(OC)c1 (stereo not drawn) | 5.15 |
| CCCCN1CCc2c1nc1ccc(Br)cc1c2N | 12.2 |
| CC(C)C(=O)N1CCN(c2ccc(NC(=O)c3ccc([N+](=O)[O-])o3)cc2Cl)CC1 | 7.05 |
| COc1cc(C(=O)N/N=C(\c2ccccc2)c2ccccn2)cc(OC)c1OC | 13.8 |
| O=C1NC(=S)NC(=O)C1=Cc1cccc2cc3ccccc3cc12 | 4.81 |
| C/C(=N\NC(=O)Cc1ccc(Cl)cc1)c1ccccn1 | 4.22 |
| CN(C)c1ccc(/C=C2\SC(=O)N(CCc3nnc(N)s3)C2=O)cc1 | 2.54 |

| SMILES | AC50 [µM] |
| --- | --- |
| CC[n+]1c(-c2ccccc2)c2cc(N)ccc2c2ccc(N)cc21 | 2.42 |
| Cc1ccc(Oc2c(C(N)=O)cc([N+](=O)[O-])cc2[N+](=O)[O-])cc1 | 3.68 |
| C=C1C(=O)O[C@@]23[C@H]1CC[C@@H](C)[C@@H]2CC[C@@]1(C)O[C@@H]31 | 5.22 |
| CC1CCN(c2nc3ccc(C(=O)O)cc3s2)CC1 | 1.25 |
| CCOC(=O)c1ccc(NC(=O)c2nc(S(=O)(=O)Cc3ccccc3)ncc2Cl)cc1 | 9.92 |
| CC(C)C(=O)N1CCN(c2ccc(NC(=O)c3ccc([N+](=O)[O-])o3)cc2)CC1 | 7.98 |
| C=C1CCC[C@]2(C)C[C@H]3OC(=O)C(CN4CCCCC4CO)[C@H]3CC12 (stereo partly drawn) | 11 |
| O=C1Nc2cc(C(=O)NCCN3CCCCCC3)ccc2S/C1=C\c1ccccc1 | 9.78 |
| Cc1ccc(C2=NN(C(=O)CCl)C(c3cccs3)C2)o1 (stereo not drawn) | 6.1 |
| CCOc1cc(/C=C(/C#N)c2ccc(Cl)cc2)cc(Cl)c1OCC(=O)O | 5.61 |
| Cc1ccc2c(c1)Oc1ccc(NC(=O)CCl)cc1C(=O)N2 | 10.1 |
| CC(C)(C)c1ccc(-c2cc(N)n[nH]2)cc1 | 0.511 |
| O=C(NC1=C(Nc2ccc(Cl)cc2)C(=O)c2ccccc2C1=O)c1ccccc1 | 0.93 |
| O=C(COc1ccc(Cl)cc1Cl)Nc1ccccn1 | 2.19 |
| CCCCN1C=CC(=C2C(=O)c3ccccc3C2=O)C=C1 | 0.921 |
| CC(C)C1CC(CCNCc2ccc(N(C)C)cc2)(c2ccccc2)CCO1 (stereo not drawn) | 11.1 |
| O=C(O)c1ccccc1C(=O)Nc1ccc(Oc2cccc3ccccc23)cc1 | 18.8 |
| O=C1C(Cl)=C(N2CCN(c3ccccc3[N+](=O)[O-])CC2)C(=O)c2ccccc21 | 3.59 |
| Cc1cc(C(=O)CN2C(=O)c3ccccc3S2(=O)=O)c(C)n1-c1ccccc1 | 3.45 |
| Cc1nc(C)c(C(=O)N/N=C/c2cc(Br)ccc2O)s1 | 3.66 |
| Cc1nc(NC(=O)/C=C/c2ccccc2)n[nH]1 | 17.8 |
| CC(=O)Cn1ncc(Br)c(Br)c1=O | 15.8 |
| CN(C)S(=O)(=O)c1ccc(-c2csc(N/N=C/c3ccco3)n2)cc1 | 3.9 |

| SMILES | AC50 [µM] |
| --- | --- |
| COc1ccc(C(=O)NC(=O)Nc2cc(C)ccn2)cc1 | 4.96 |
| O=C1NC(=O)N(CCc2ccc(F)cc2)C(=O)/C1=C\C=C\c1ccccc1 | 8.26 |
| Cc1c(C#N)c(NC(=O)CCl)n(Cc2ccccc2)c1C | 11.2 |
| Cc1cc(C)cc(N2C(=O)NC(=O)/C(=C\c3cccn3-c3ccccc3)C2=O)c1 | 13.8 |
| Cc1nc(Sc2nnnn2C)c2c3c(sc2n1)CCC3 | 4.98 |
| O=c1c2ccccc2nc(/C=C/c2ccc([N+](=O)[O-])o2)n1-c1ccc(O)cc1 | 4.45 |
| COc1ccc2[nH]cc(C(=O)CCl)c2c1 | 5.65 |
| COc1ccc(NC(C)C(=O)N/N=C/c2ccc([N+](=O)[O-])s2)cc1 (stereo not drawn) | 15.8 |
| CC1=C(CC(=O)c2ccccc2)C(=O)c2ccccc2C1=O | 7.15 |
| O=C1/C(=C/c2ccccc2[N+](=O)[O-])COc2ccccc21 | 9.8 |
| O=C(/C=C/c1ccc(Cl)cc1)c1ccc([N+](=O)[O-])o1 | 5.32 |
| CCOc1ccc(/C=C2\SC(=S)N(CCC(=O)O)C2=O)cc1 | 0.577 |
| Cc1ccc2c(c1)COc1c3ccc(C(=O)O)cc3nn1-2 | 2.23 |
| Cc1cc(NCCCn2ccnc2)n2ncc(-c3ccccc3)c2n1 | 11 |
| COc1cc(/C=C/C(=O)c2ccc3c(c2)OCCO3)cc(Br)c1OCC(=O)N(C)C | 6.17 |
| Cn1nc([N+](=O)[O-])nc1S(C)(=O)=O | 9.2 |
| Nc1ccc(-c2cc3ccccc3c(=O)o2)cc1 | 0.293 |
| Cc1ccc(C)c(-n2c3nc(=O)[nH]c(=O)c-3cc3cc([N+](=O)[O-])ccc32)c1 | 8.42 |
| CCSC1(SCC)N=C(N)C2(C#N)C(c3ccc(F)cc3)C12C#N (stereo not drawn) | 14 |
| COc1ccc(C(C(=O)NC2CCCCC2)N(C(=O)CCl)c2ccc(OC)cc2)cc1 (stereo not drawn) | 9.27 |
| O=C(Nc1ccc(N2CCCC2)c(Cl)c1)c1ccc([N+](=O)[O-])o1 | 11.1 |
| O=C(Nc1nc2cc3c(cc2s1)OCO3)C1=COCCO1 | 3.77 |
| Cn1cccc1-c1cc(C(=O)N/N=C/c2cc(Br)ccc2O)[nH]n1 | 5.25 |

| SMILES | AC50 [µM] |
| --- | --- |
| C=CCn1c(C)cc(C(=O)Cn2ncc(Cl)c(Cl)c2=O)c1C | 9.97 |
| COc1cc(C2C(C#N)=C(N)Oc3cc(N(C)C)ccc32)cc2c1OCO2 (stereo not drawn) | 0.601 |
| O=C1NC(=O)N(c2ccccc2)C(=O)/C1=C/C=C/c1ccco1 | 8.29 |
| CCN(CC)CCNC(=O)c1ccc(NC(=O)c2cccc(S(=O)(=O)N3c4ccccc4CC3C)c2)cc1 (stereo not drawn) | 10.5 |
| CCCC(=O)NC(c1ccc(OC)c(OC)c1)c1cc(Cl)c2cccnc2c1O (stereo not drawn) | 9.06 |
| CCc1ccc(-c2cc(C(=O)Nn3cnnc3)c3ccccc3n2)cc1 | 12.5 |
| CCn1c(/C=C/N(C)c2ccccc2)[n+](CC)c2ccc(Cl)cc21 | 6.86 |
| N#C/C(=C(/O)CCl)c1nc2ccccc2[nH]1 | 4.6 |
| CC(C)(C)C(=O)Nc1cc2nn(-c3ccccc3)nc2cc1Cl | 0.495 |
| Cc1nc2ccccn2c1C(=O)/C=C/c1cccc([N+](=O)[O-])c1 | 6.9 |
| Cc1cc(C)c2ccc(N)nc2c1O | 9.58 |
| COc1cc([N+](=O)[O-])cc(/C=N/NC(=O)c2ccc(NC(=O)c3ccc(C)cc3)cc2)c1O | 1.55 |
| COc1ccc(COC(=O)c2cc([N+](=O)[O-])ccc2N2CCOCC2)cc1F | 0.023 |
| CC(=NNc1nc2ccccc2o1)c1cc2ccccc2cn1 | 0.175 |
| Cc1cnc(NC(=O)c2nn(C)cc2[N+](=O)[O-])s1 | 20.6 |
| CC1(C)Cc2c(sc(NC(=O)c3ccc4ncsc4c3)c2C(N)=O)C(C)(C)N1 | 10.1 |
| Cc1ccc(C)c(NC(=O)/C(C#N)=C/c2cn(CC(=O)NCc3ccco3)c3ccccc23)c1 | 6.56 |
| O=C(Nc1ccc(S(=O)(=O)N2CCCCCC2)cc1)c1[nH]ncc1[N+](=O)[O-] | 4.02 |
| O=[N+]([O-])c1ccc(S(=O)(=O)CC(CN2CCCCC2)N2CCCCC2)cc1 (stereo not drawn) | 4.88 |
| CC(C)(C)c1ccc(Cn2c(=N)n(CC(O)c3ccco3)c3ccccc32)cc1 (stereo not drawn) | 11.8 |
| COc1ccc(Oc2cc(NC(=O)c3nn(C)cc3[N+](=O)[O-])cc([N+](=O)[O-])c2)cc1 | 8.94 |
| Cc1ccccc1C(=O)N1CCN(c2ccc(NC(=O)c3ccc([N+](=O)[O-])o3)cc2)CC1 | 6.2 |
| Cc1ccc(C#CC[N+]2(CC#Cc3ccc(C)cc3)CCCCC2)cc1 | 3.95 |

| SMILES | AC50 [µM] |
| --- | --- |
| COc1cc(NC(=O)c2ccc([N+](=O)[O-])o2)ccc1NC(=O)c1cccs1 | 8.46 |
| CCN1CCCC1CNC(=O)c1ccc2c(c1)NC(=O)/C(=C\c1ccc(C)cc1)S2 (stereo not drawn) | 18.9 |
| O=C(O)c1cccc(NC(=O)c2cccc(NC(=O)C3CCCO3)c2)c1 (stereo not drawn) | 21.2 |
| CC(C)N1C(=O)/C(=C/C=C/c2ccco2)C(=O)N(Cc2ccco2)C1=O | 9.97 |
| Cc1c(C#N)c(NC(=O)CCl)n(Cc2cccs2)c1C | 7.06 |
| CCOc1ccc(-n2c(C)cc(C(=O)CCl)c2C)cc1 | 4.59 |
| O=C(Cn1ncc(Cl)c(Cl)c1=O)Nc1ccc2c(c1)OCO2 | 13.2 |
| CN1CCC(N(C)C(=O)/C=C/c2cn(-c3ccccc3)nc2-c2cccs2)CC1 | 9.82 |
| O=C(Nc1cccc(S(=O)(=O)N2CCCCC2)c1)c1ccc([N+](=O)[O-])o1 | 11.9 |
| Cc1ccc(S(=O)(=O)Nc2cccc3cccnc23)cc1 | 5.55 |
| Nc1ccc(-c2nc3c(Cl)cc(N)cc3[nH]2)cc1 | 3.76 |
| C=CCn1c(C)cc(C2=NNC(=NC(C)(C)C)SC2)c1C | 4.09 |
| COc1cc2c(cc1O)C(SC)=NC(C)(C)C2 | 11.3 |
| COc1ccc2nc(C)cc(SCC(=O)N/N=C/c3ccc(O)cc3O)c2c1 | 10.1 |
| CC(C)(C)c1ccc(OCCCNCc2ccccc2)cc1 | 18.4 |
| COc1ccc(NC(=O)CCC(=O)N/N=C/c2ccc([N+](=O)[O-])s2)cc1 | 7.62 |
| Nc1ccc(Oc2cccc(Oc3ccc(N)cc3)c2)cc1 | 1.1 |
| Cc1cc(Br)ccc1NC(=O)CNC(=O)Cn1ncc(Cl)c(Cl)c1=O | 7.47 |
| COC(=O)C1=C(C)N(Cc2ccccc2)C(=NCCc2cccnc2)N[C@H]1c1ccc(Br)cc1 | 17.8 |
| O=[N+]([O-])c1ccc(/C=N/n2c(CO)nc3ccccc32)s1 | 1.98 |
| Nc1nc2ccccc2n1/N=C/c1ccc([N+](=O)[O-])s1 | 2.81 |
